# Reference: patent US4707481A, “Pyridazinones, their preparation and use, and bronchospasmolytic medicaments containing pyridazinones” (BYK Gulden Lomberg Chemische Fabrik GmbH, priority 1983, dated 1987)
# What was measured:
# [1] = tested on: chain of tracheal rings of guinea pigs; experiment: relaxing action on chain of tracheal rings in vitro (bronchospasmolytic action); set-up: species or system guinea pig; details: for EC50: Cavia porcellus, Column A, negative logarithm of EC50 in mol/l, 50% of maximum relaxation by (-)isoprenaline, read-out: -lg[EC50] trachea (converted); for [EC40 pot.] left atrium / [EC50] trachea: Column C, measure of organ-selective activity; for [EC50] theophylline / [EC50] substance: Column D, trachea
# [2] = tested on: electrically stimulated left atrium of rats; experiment: positive inotropic action on electrically stimulated left atrium in vitro; set-up: species or system rat; details: for [EC40 pot.] theophylline / [EC40 pot.] substance: Column E, left atrium; for EC40: Rattus norvegicus, Column B, negative logarithm of EC40pot in mol/l, 40% increase in contraction force, read-out: -lg[EC40 pot.] left atrium (converted)
# [3] = toxicity studies, mouse p.o.; details: mouse, in vivo, po, 10080 min
# Description: The toxicity studies are carried out on female NMRI mice (body weight 23-30 g). The animals (5 animals per dose) receive food and water ad libitum. Various doses of the substances are administered once as a suspension in methocel via a gavage. The period of observation lasts 7 days. The tolerated dose (TD), that is to say the highest dose at which as yet none of the animals die, is determined by observation. The average lethal dose (LD50), that is to say the dose at which 50% of the animals die, is determined from the dose/action curve by means of linear regression.
# [4] = tested on: histamine-induced bronchospasm; experiment: inhibition of histamine-induced bronchospasm in anesthetized guinea pigs; format: in vivo, guinea pig; details: for inhibition of histamine-induced bronchospasm, TVi / inhibition of histamine-induced bronchospasm, Vmaxe / inhibition of histamine-induced bronchospasm, Vmaxi: 20 μmol/kg i.v.
# Description: A method for simultaneously recording pharmacodynamic and toxic effects on internal sensitive receptors, on the respiration and the cardiovascular system of guinea pigs was used [U. Kilian, E. Muller, E. Ch. […] To characterize the bronchospasm induced by histamine (0.09-0.18 μmol /kg i.v.), the maximum flow rate of the respiratory air during inspiration (Vmaxi) and expiration (Vmaxe) and the breath volume (BVi) were measured. A histamine spasm before administration of the substance was compared with several histamine spasms after administration of the substance. The test substances were administered intravenously (i.v.) and/or intrajejunally (i.j.). 5 to 10 animals were used per measurement, and the arithmetic mean was calculated from the results.
# [5] = tested on: acetylcholine-induced bronchospasm; experiment: protective effect against acetylcholine-induced bronchospasm in conscious guinea pigs; format: in vivo, guinea pig
# Description: The figure in parentheses indicates the number out of 10 animals in which the latency period more than tripled.
# The latency period is to be understood to be the time from the start of acetylcholine-atomization until clear signs of asthma appeared.
# The time from the start of atomization to the onset of clear respiratory exertion (in certain circumstances, hypoxic convulsion in the lateral position) is measured, and is denoted the latency period.
# The test substance is administered orally by gavage (standard dose 100 μmol/kg, volume 1 ml of 4% strength methocel suspension in 0.9% strength sodium chloride solution/kg). […] Prolongation of the latency period to at least twice its length is regarded as a protective effect.
smiles,measurement,setting,value
"CCCCOc1ccc(-c2ccc(=O)[nH]n2)cc1OC [Serial No. 3, 6-(4-n-butoxy-3-methoxyphenyl)-3[2H]pyridazinone]",EC50,[1],2510 nM
same,[EC40 pot.] left atrium / [EC50] trachea,[1],2.6
same,[EC50] theophylline / [EC50] substance,[1],53.8
same,[EC40 pot.] theophylline / [EC40 pot.] substance,[2],63.2
same,EC40,[2],6610 nM
same,tolerated dose,[3],> 761
"COc1cc(-c2ccc(=O)[nH]n2)ccc1OCCC(C)C [Serial No. 6, 6-[3-methoxy-4-(3-methylbutoxy)-phenyl]-3[2H]pyridazinone]",EC50,[1],708 nM
same,[EC40 pot.] left atrium / [EC50] trachea,[1],219
same,[EC50] theophylline / [EC50] substance,[1],190
same,[EC40 pot.] theophylline / [EC40 pot.] substance,[2],4.6
same,EC40,[2],91200 nM
same,tolerated dose,[3],> 800
"COc1ccc(-c2ccc(=O)[nH]n2)cc1OCC(C)C [Serial No. 15, 6-(4-methoxy-3-isobutoxyphenyl)-3[2H]pyridazinone]",EC50,[1],724 nM
same,[EC40 pot.] left atrium / [EC50] trachea,[1],0.5
same,[EC50] theophylline / [EC50] substance,[1],186
same,[EC40 pot.] theophylline / [EC40 pot.] substance,[2],1122
same,EC40,[2],372 nM
same,"inhibition of histamine-induced bronchospasm, TVi",[4]; 2 min,99%
same,"inhibition of histamine-induced bronchospasm, Vmaxe",[4]; 2 min,108%
same,"inhibition of histamine-induced bronchospasm, Vmaxi",[4]; 2 min,172%
same,"inhibition of histamine-induced bronchospasm, TVi",[4]; 10 min,107%
same,"inhibition of histamine-induced bronchospasm, Vmaxe",[4]; 10 min,123%
same,"inhibition of histamine-induced bronchospasm, Vmaxi",[4]; 10 min,119%
same,"inhibition of histamine-induced bronchospasm, TVi",[4]; 20 min,104%
same,"inhibition of histamine-induced bronchospasm, Vmaxe",[4]; 20 min,103%
same,"inhibition of histamine-induced bronchospasm, Vmaxi",[4]; 20 min,110%
same,"inhibition of histamine-induced bronchospasm, TVi",[4]; 30 min,63%
same,"inhibition of histamine-induced bronchospasm, Vmaxe",[4]; 30 min,84%
same,"inhibition of histamine-induced bronchospasm, Vmaxi",[4]; 30 min,82%
same,"inhibition of histamine-induced bronchospasm, TVi",[4]; 60 min,33%
same,"inhibition of histamine-induced bronchospasm, Vmaxe",[4]; 60 min,46%
same,"inhibition of histamine-induced bronchospasm, Vmaxi",[4]; 60 min,60%
same,inhibition of histamine-induced bronchospasm compared with theophylline,[4]; result in words,significantly more effective than theophylline
same,Doubling of the latency period,"[5]; 100 μmol/kg p.o., 30 min",10 N of 10 animals
same,Tripling of the latency period,"[5]; 100 μmol/kg p.o., 30 min, figure in parentheses",10 N of 10 animals
same,protective effect compared with theophylline,[5]; result in words,greater protective effect
